Test results: patent publication US20150038541A1, “COMPOSITION AND METHODS FOR CELL MODULATION” (APOSIGNAL BIOSCIENCE LLC, priority 2012, published 2015)
Where two headings read alike, the source gives them in different places.

Key:
HeLa cells [1] = tested on: HeLa cells
Description: HeLa cells were treated with 10 micrograms/ml cycloheximide alone or together with a range of TNF-alpha concentrations from 2.5 to 20 nanograms per ml. Following treatment, the cells were fixed with 4% paraformaldehyde (4° C. for 30 minutes), stained for 30 minutes with 0.5% crystal violet in 10% ethanol, and washed extensively with water to remove dye that was not bound to the cells. Cell bound crystal violet was solubilized with 10% acetic acid and absorbance was measured at 590 nm to quantitate cell growth. The time course data for each cell line were fit by nonlinear regression analysis to the equation for exponential growth using GraphPad Prism software.

HeLa cells [2] = experiment: MTS cell viability of HeLa cells treated with anticancer drug with or without AS-7 (48 hours); format: cell-based, human; conditions: Homo sapiens, HeLa, 48 h, 48 hours, MTS, read-out: IC50 of carfilzomib (loss of HeLa cell viability)
HeLa cells [3] = experiment: as above; format: cell-based, human; conditions: for IC50: Homo sapiens, HeLa, 48 h, 48 hours, MTS, read-out: IC50 of bortezomib (loss of HeLa cell viability)
Description: HeLa cells were seeded in a 96 well tissue culture plate (2000 cells per well). The compounds, 10 μM AS-7 and bortezomib (BioVision, Inc., Milpitas, Calif.) at the concentrations indicated in FIG. 1, were added the following day. AS-7 was prepared according to the Ugi reaction by combination of the four components: isocyanide (III), m-cyanobenzaldehyde (IV), 2-benzoylbenzoic acid (V), and histamine (VI) in refluxing methanol (Ref. http://www.occhem.com/synthesis/2561 2.html). The Medicinal Chemistry unit of Southern Research Institute (2000 Ninth Avenue South Birmingham, Ala. 35205) was contracted by a fee for service agreement to synthesize AS-7.
After 48 hours, MTS (3-(4,5-dimethylthiazol-2-yl)-5-(3-carboxymethoxyphenyl)-2-(4-sulfophenyl)-2H-tetrazolium) was added and absorbance was measured at 490 nm. […] Values in FIG. 1 are relative to controls that contained only the vehicle in which the drugs were dissolved. Vehicle had no effect on cell viability. Error bars in FIG. 1 are not visible if they are smaller than the symbols. […]
(§1) HeLa cells were seeded in a 96 well tissue culture plate (2000 cells per well). The compounds, 10 μM AS-7 and bortezomib at the concentrations indicated in FIG. 9 were added the following day. After 48 hours, MTS was added and absorbance was measured at 490 nm. […] Values are relative to controls that contained only the vehicle in which the drugs were dissolved. Vehicle had no effect on cell viability.

ovarian A2780 cells = experiment: Crystal violet cell viability of ovarian A2780 cells, bortezomib with or without AS-7 (72 hours); format: cell-based, human; conditions: Homo sapiens, A2780, 72 h, 72 hours, crystal violet, read-out: IC50 of the cytotoxic effect of bortezomib towards ovarian A2780 cells
Description: Ovarian tumor-derived cell lines, IGROV and A2780, were seeded in a 96 well tissue culture plate (2000 cells per well). The compounds, 10 μM AS-7 and bortezomib (BioVision, Inc., Milpitas, Calif.) at the concentrations indicated in the figures, were added the following day. AS-7 was prepared as described in Example I above. […] Values are relative to cells that with the vehicle in which the drugs were dissolved. Vehicle had no effect on cell viability. Error bars in FIG. 6 and FIG. 7 are not shown if they are smaller than the symbols.

Melanoma A2620 cells = experiment: Crystal violet cell viability of melanoma A2620 cells, bortezomib with or without AS-7 (72 hours); format: cell-based, human; conditions: Homo sapiens, 72 h, read-out: IC50 of bortezomib (loss of cell viability)
Description: as §1, with “Melanoma A2620 cells” for “HeLa cells”, “FIG. 8” for “FIG. 9”, “day.” for “day. After 48 hours, MTS was added and absorbance was measured at 490 nm.”

T47D cells = experiment: MTS cell viability of breast cancer T47D cells, bortezomib with or without AS-7; format: cell-based, human; conditions: 48 hours, MTS
Description: (§2) Breast cancer derived cell lines, T47D and 159C, were seeded in a 96 well tissue culture plate (2000 cells per well). The significance of these two lines of breast cancer derived cell lines is that the T47D cells positive for three markers used to optimize the chemotherapeutic treatment, namely HER2 receptor, estrogen receptor, and progesterone receptor. By contrast to the T47D cells, the 159C cells are negative for the three markers. The compounds, 10 μM AS-7 and a range of bortezomib (BioVision, Inc., Milpitas, Calif.) concentrations were added the following day. After 48 hours, MTS was added and absorbance was measured at 490 nm.

159C cells = experiment: MTS cell viability of breast cancer 159C cells, bortezomib with or without AS-7; format: cell-based; conditions: 48 hours, MTS
Description: as §2

proteasome = experiment: Proteasome activity measured in lysates of treated cells; format: cell-based; conditions: bortezomib treated HeLa cells; data not shown
Description: (§3) The cytotoxic action of bortezomib is known to be mediated by proteasome inhibition and the induction of apoptosis.

caspase-3 = experiment: Caspase-3 activity measured in lysates of treated HeLa cells; format: cell-based; conditions: bortezomib treated HeLa cells; data not shown
Description: as §3

[4] = cited from earlier work
solid tumors = conditions: phase I and II clinical trials; single agent or in combination with several anticancer drugs; cited from earlier work

For `C[C@@H]1C[C@@H]([C@H](O)CC2CC(=O)NC(=O)C2)C(=O)[C@@H](C)C1` [cycloheximide, reference compound], the “effect on HeLa cell proliferation and cell death” value (HeLa cells [1]; 10 micrograms/ml cycloheximide alone, 24 hour interval, absence or presence of AS-7) was “cytostatic, but not cytotoxic”.
Work on `CC(C)C[C@H](NC(=O)[C@H](CCc1ccccc1)NC(=O)CN1CCOCC1)C(=O)N[C@@H](Cc1ccccc1)C(=O)N[C@@H](CC(C)C)C(=O)[C@@]1(C)CO1` [carfilzomib] yielded an IC50 (HeLa cells [2]; in the absence of AS-7) of ~8.5 nM and an IC50 (HeLa cells [2]; in the presence of 10 μM AS-7) of ~2.5 nM.
For `CC(C)CC(C=CS(C)(=O)=O)NC(=O)C(CC(C)C)NC(=O)C(CC(C)C)NC(=O)Cc1cc(I)c(O)c([N+](=O)[O-])c1` (stereo not drawn) [NLVS, 4-hydroxy-5-iodo-3-nitrophenylacetyl-Leu-Leu-leucinal-vinyl sulfone, reference compound], the “HeLa cell viability at NLVS concentrations that by themselves had little effect” value (HeLa cells [3]; in the presence of 10 μM AS-7) was “complete loss of viability”.
For TNF-alpha, the “cytotoxicity to HeLa cells” value (HeLa cells [1]; TNF-alpha in combination with cycloheximide, apparent within six hours) was “rapidly cytotoxic”.
`CC(C)C[C@H](NC(=O)[C@H](Cc1ccccc1)NC(=O)c1cnccn1)B(O)O` [bortezomib] showed an IC50 (HeLa cells [3]; in the absence of AS-7) of ~8.8 nM, an IC50 (HeLa cells [3]; in the presence of 10 μM AS-7) of ~2.5 nM and an IC50 (ovarian A2780 cells; in the absence of AS-7) of ~12.9 nM. For the same compound, the IC50 (ovarian A2780 cells; in the presence of 10 μM AS-7) was ~4.2 nM, the IC50 (Melanoma A2620 cells; in the absence of AS-7, 72 hours) was ~7.3 nM and the IC50 (Melanoma A2620 cells; in the presence of 10 μM AS-7, 72 hours) was ~2.4 nM. For the same compound, the “sensitivity to the cytotoxic action of bortezomib by itself” value (T47D cells) was “highly sensitive”, the “sensitivity to the cytotoxic action of bortezomib by itself” value (159C cells) was “highly sensitive” and the “proteasome activity in cell lysates” value (proteasome) was “markedly inhibited”. For the same compound, the “caspase-3 activity in cell lysates” value (caspase-3) was “increased”, the “median time to improvement from the neurotoxicity” value ([4]; after discontinuation of bortezomib treatment) was “three” and the “patients with Grades 1 and 2 peripheral neuropathy” value ([4]; patients with newly diagnosed disease under bortezomib therapy) was ≤ 33%. For the same compound, the “patients with grades 3 and 4 neurotoxicity” value ([4]; patients with newly diagnosed disease) was “up to 18%”, the “patients with Grades 1 and 2 peripheral neuropathy” value ([4]; patients with recurrent disease under bortezomib therapy) was “up to 75%” and the “patients with grades 3 and 4 neurotoxicity” value ([4]; patients with recurrent disease) was “up to 30%”. For the same compound, the “activity against solid tumors” value (solid tumors) was “quite limited activity”.
